PubChem BioAssay AID2060492 (Molecular Pharmacology Branch, DTP, NCI, 2025)
pIC50: −log10 of the molar value.

Tested on: 695427-040-R-J1-PDC complex spheroids, viability percent T/C
Experiment: Anticancer human tumor 695427-040-R-J1-PDC patient-derived colon adenocarcinoma cell line growth inhibition [GQUAD]
Conditions: for pIC50: curve of first compound; for viability, T/C: stronger effect = lower value; active means viability on the fitted dose curve at most 10% of control; inactive means the rest
Procedure, shortened: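 Multi-cell-type spheroids of tumor cells with HUVEC and mesenchymal stem cells, treated with drug combinations. Concentrations descend in half-log steps from near clinical Cmax, or from 10 microM where Cmax is unknown; viability read-out.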

[1] = second compound 0.0316 µM, first compound 0.0316 µM
[2] = second compound 0.0316 µM, first compound 0.1 µM
[3] = second compound 0.0316 µM, first compound 0.316 µM
[4] = second compound 0.0316 µM, first compound 1 µM
[5] = second compound 0.0316 µM, first compound 3.16 µM
[6] = second compound 0.0316 µM, first compound 10 µM
[7] = second compound 0.1 µM, first compound 0.0316 µM
[8] = second compound 0.1 µM, first compound 0.1 µM
[9] = second compound 0.1 µM, first compound 0.316 µM
[10] = second compound 0.1 µM, first compound 1 µM
[11] = second compound 0.1 µM, first compound 3.16 µM
[12] = second compound 0.1 µM, first compound 10 µM
[13] = second compound 0.316 µM, first compound 0.0316 µM
[14] = second compound 0.316 µM, first compound 0.1 µM
[15] = second compound 0.316 µM, first compound 0.316 µM
[16] = second compound 0.316 µM, first compound 1 µM
[17] = second compound 0.316 µM, first compound 3.16 µM
[18] = second compound 0.316 µM, first compound 10 µM
[19] = second compound 1 µM, first compound 0.0316 µM
[20] = second compound 1 µM, first compound 0.1 µM
[21] = second compound 1 µM, first compound 0.316 µM
[22] = second compound 1 µM, first compound 1 µM
[23] = second compound 1 µM, first compound 3.16 µM
[24] = second compound 1 µM, first compound 10 µM
[25] = second compound 3.16 µM, first compound 0.0316 µM
[26] = second compound 3.16 µM, first compound 0.1 µM
[27] = second compound 3.16 µM, first compound 0.316 µM
[28] = second compound 3.16 µM, first compound 1 µM
[29] = second compound 3.16 µM, first compound 3.16 µM
[30] = second compound 3.16 µM, first compound 10 µM
[31] = second compound 10 µM, first compound 0.0316 µM
[32] = second compound 10 µM, first compound 0.1 µM
[33] = second compound 10 µM, first compound 0.316 µM
[34] = second compound 10 µM, first compound 1 µM
[35] = second compound 10 µM, first compound 3.16 µM
[36] = second compound 10 µM, first compound 10 µM
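Further: spheroids exposed to compounds for seven days before readout.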

Nc1ccn(C2OC(CO)C(O)C2(F)F)c(=O)n1 (stereo not drawn) + CN(C)c1ccc(Nc2c3ccc(NC(=O)CCN4CCCC4)cc3nc3cc(NC(=O)CCN4CCCC4)ccc23)cc1
inactive: viability, T/C [1] 88.9% | viability, T/C [2] 81% | viability, T/C [3] 74.9% | viability, T/C [4] 74.2% | viability, T/C [5] 72.9% | viability, T/C [6] 62.7% | viability, T/C [7] 97.5% | viability, T/C [8] 82.7% | viability, T/C [9] 78.3% | viability, T/C [10] 74.1% | viability, T/C [11] 69.7% | viability, T/C [12] 55.3% | viability, T/C [13] 94.4% | viability, T/C [14] 83.2% | viability, T/C [15] 72.7% | viability, T/C [16] 69.3% | viability, T/C [17] 68.9% | viability, T/C [18] 59.8% | viability, T/C [19] 87.3% | viability, T/C [20] 78.8% | viability, T/C [21] 75% | viability, T/C [22] 70.4% | viability, T/C [23] 70.5% | viability, T/C [24] 57.5% | viability, T/C [25] 76.8% | viability, T/C [26] 78% | viability, T/C [27] 71.4% | viability, T/C [28] 65.2% | viability, T/C [29] 65.5% | viability, T/C [30] 54.4% | viability, T/C [31] 83.1% | viability, T/C [32] 66.2% | viability, T/C [33] 66.3% | viability, T/C [34] 63.6% | viability, T/C [35] 57.6% | viability, T/C [36] 48.2%
< 5.00: pIC50 (second compound 0.0316 µM) | pIC50 (second compound 0.1 µM) | pIC50 (second compound 0.316 µM) | pIC50 (second compound 1 µM) | pIC50 (second compound 3.16 µM) | pIC50 (second compound 10 µM)

O=c1[nH]cc(F)c(=O)[nH]1 + Cc1[nH]c2ccc(F)cc2c1-c1nc2c3cccnc3c3ncccc3c2[nH]1
inactive: viability, T/C [1] 102% | viability, T/C [2] 91.1% | viability, T/C [3] 99.1% | viability, T/C [4] 92.3% | viability, T/C [5] 89% | viability, T/C [6] 108% | viability, T/C [7] 98.4% | viability, T/C [8] 77.3% | viability, T/C [9] 92.2% | viability, T/C [10] 82.2% | viability, T/C [11] 94.8% | viability, T/C [12] 98.6% | viability, T/C [13] 104% | viability, T/C [14] 74.1% | viability, T/C [15] 89.1% | viability, T/C [16] 62.4% | viability, T/C [17] 98.8% | viability, T/C [18] 87% | viability, T/C [19] 84.5% | viability, T/C [20] 91.8% | viability, T/C [21] 76.2% | viability, T/C [22] 82.3% | viability, T/C [23] 88.2% | viability, T/C [24] 89.2% | viability, T/C [25] 82.1% | viability, T/C [26] 81.7% | viability, T/C [27] 83.7% | viability, T/C [28] 69.8% | viability, T/C [29] 74.1% | viability, T/C [30] 66.3% | viability, T/C [31] 59.8% | viability, T/C [32] 73% | viability, T/C [33] 75.8% | viability, T/C [34] 75.9% | viability, T/C [35] 74.1% | viability, T/C [36] 78.3%
< 5.00: pIC50 (second compound 0.0316 µM) | pIC50 (second compound 0.1 µM) | pIC50 (second compound 0.316 µM) | pIC50 (second compound 1 µM) | pIC50 (second compound 3.16 µM) | pIC50 (second compound 10 µM)

CC1COCCN1c1cc(C2(O)CC3CCC(C2)O3)c2cnn(-c3ccn[nH]3)c2n1 (stereo not drawn) + Cc1[nH]c2ccc(F)cc2c1-c1nc2c3cccnc3c3ncccc3c2[nH]1
6.24: pIC50 (second compound 0.316 µM)
inactive: viability, T/C [1] 83.2% | viability, T/C [2] 84.2% | viability, T/C [3] 65.7% | viability, T/C [4] 42.5% | viability, T/C [5] 36% | viability, T/C [6] 24.6% | viability, T/C [7] 93.8% | viability, T/C [8] 77.5% | viability, T/C [9] 70.4% | viability, T/C [10] 31.4% | viability, T/C [11] 37.6% | viability, T/C [12] 28.1% | viability, T/C [13] 85.2% | viability, T/C [14] 64% | viability, T/C [15] 60.6% | viability, T/C [16] 41.7% | viability, T/C [17] 37.5% | viability, T/C [18] 30.2% | viability, T/C [19] 86.2% | viability, T/C [20] 55.8% | viability, T/C [21] 55.2% | viability, T/C [22] 33.6% | viability, T/C [23] 41% | viability, T/C [24] 21.2% | viability, T/C [25] 67% | viability, T/C [26] 55.8% | viability, T/C [27] 50.9% | viability, T/C [28] 34.2% | viability, T/C [29] 33.2% | viability, T/C [30] 17.4% | viability, T/C [31] 59% | viability, T/C [32] 59.8% | viability, T/C [33] 61.7% | viability, T/C [34] 27.9% | viability, T/C [35] 30.4% | viability, T/C [36] 22.3%
6.13: pIC50 (second compound 0.0316 µM)
6.60: pIC50 (second compound 3.16 µM)
6.34: pIC50 (second compound 10 µM)
6.54: pIC50 (second compound 1 µM)
6.23: pIC50 (second compound 0.1 µM)

CCCS(=O)(=O)Nc1ccc(F)c(C(=O)c2c[nH]c3ncc(-c4ccc(Cl)cc4)cc23)c1F + Cc1[nH]c2ccc(F)cc2c1-c1nc2c3cccnc3c3ncccc3c2[nH]1
< 5.00: pIC50 (second compound 0.0316 µM) | pIC50 (second compound 0.1 µM) | pIC50 (second compound 0.316 µM)
5.04: pIC50 (second compound 1 µM)
5.30: pIC50 (second compound 3.16 µM)
inactive: viability, T/C [1] 97.4% | viability, T/C [2] 89.3% | viability, T/C [3] 92.5% | viability, T/C [4] 84.3% | viability, T/C [5] 70.9% | viability, T/C [6] 60.1% | viability, T/C [7] 109% | viability, T/C [8] 99.2% | viability, T/C [9] 86% | viability, T/C [10] 77.6% | viability, T/C [11] 70.9% | viability, T/C [12] 53.8% | viability, T/C [13] 107% | viability, T/C [14] 93.9% | viability, T/C [15] 77.7% | viability, T/C [16] 73.4% | viability, T/C [17] 66.6% | viability, T/C [18] 54.7% | viability, T/C [19] 93.9% | viability, T/C [20] 89.8% | viability, T/C [21] 85.3% | viability, T/C [22] 76.2% | viability, T/C [23] 63.9% | viability, T/C [24] 49% | viability, T/C [25] 84% | viability, T/C [26] 86.2% | viability, T/C [27] 72% | viability, T/C [28] 71.2% | viability, T/C [29] 56.5% | viability, T/C [30] 39.8% | viability, T/C [31] 69.2% | viability, T/C [32] 72.6% | viability, T/C [33] 63.3% | viability, T/C [34] 66% | viability, T/C [35] 46% | viability, T/C [36] 37.1%
5.60: pIC50 (second compound 10 µM)
